Assays:
[1] = system: tumor cell lines (HL-60, HeLa, PC-3, Caco-2, MCF-7); assay: WST-1 cytotoxicity assay, tumor cell lines (panel statement); assay type: cell-based, human; conditions: WST-1, 48 h; table 4
In short: (§1)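 Human tumour cell lines in culture were exposed to compounds at 37° C for 48 h, then given WST-1. Viability was read as formazan absorbance at (450 vs. 620) nm.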

[2] = WST-1 cytotoxicity assay, MCF-7; assay type: cell-based; conditions: human, MCF-7 cells (breast adenocarcinoma); WST-1, 48 h incubation; read-out: EC50 class, cytotoxic effect, CL-5 (MCF-7)
In short: as §1

cathepsin B = cathepsin B (Homo sapiens, UniProt P07858); assay: cathepsin B assay; assay type: biochemical; conditions: 0.2 μg/ml cathepsin B, 2 mM Z-Arg-Arg-pNA, pH 5.8, 30° C., 30 min incubation; read-out: IC50 class, Target T-8 (Cathepsin)
Method: In order to investigate the impact of some of the inventive compounds on the activity of key proteases the following assay was performed: Protease activities were measured spectrophotometrically at 30° C. according to Schomburg and Salzmann (Schomburg, B.; Salzmann M. GBF: Enzyme Handbook. Springer Verlag, Berlin Heidelberg, 1991) and Bergmeyer et al. (Bergmeyer, H. U.; Bergmeyer, J.; Graβl, M. Methods of Enzymatic Analysis, Vol. V Enzymes 3: Peptides, Proteinases and Their Inhibitors. pp 55-371, VCH, Weinheim, 1988). The release of 4-nitroaniline was determined at 390 nm with a Spectramax Plus UV/Vis spectrophotometer (Molecular Devices). The cathepsin B assay was performed in a reaction mixture containing 0.2 μg/ml cathepsin B, 2 mM Z-Arg-Arg-pNA in 88 mM KH2PO4, 12 mM Na2HPO4, 1.33 mM EDTA, 0.03% Brij 35 (pH 5.8). The trypsin assay was carried out in a reaction mixture containing 0.1 μg/ml trypsin and 120 μM Ac-Ala-Ala-Ser(PO3H2)-Pro-Arg-pNA in 35 mM HEPES (pH 7.8) and the papain assay in a mixture consisting of 16 μg/ml papain and 2 mM Bz-DL-Arg-pNA in 10 mM Na2HPO4, 2 mM L-Cys, 5 mM EDTA (pH 6.5). In general, reactions were started by addition of peptide substrate after a 30 min incubation of 1-100 μM effector with given concentrations of enzyme.

LpCyp18 = LpCyp18 (Legionella pneumophila, UniProt Q5ZRZ4); assay: biochemical; conditions: IC50 class, Target T-4 (LpCyp18)
LpCyp18, sequence (Q5ZRZ4 1-164): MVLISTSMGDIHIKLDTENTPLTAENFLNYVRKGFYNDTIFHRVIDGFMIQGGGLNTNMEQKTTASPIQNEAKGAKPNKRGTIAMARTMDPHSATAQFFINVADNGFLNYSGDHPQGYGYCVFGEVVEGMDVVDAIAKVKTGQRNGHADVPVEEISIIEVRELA

HL-60 cells = assay: FACS measurements and TUNEL assay (Apo-Direct kit); assay type: cell-based, human; conditions: FIG. 2
Excerpt: Enari M. Sakahira H. Yokoyama H. Okawa K. Iwamatsu A. Nagata S. A caspase-activated DNase that degrades DNA during apoptosis, and its inhibitor ICAD [erratum appears in Nature 1998 May 28; 393(6683):396.]. Nature. 391:43-50, 1998 • Darzynkiewicz Z. Juan G. Li X. Gorczyca W. Murakami T. Traganos F. Cytometry in cell necrobiology: analysis of apoptosis and accidental cell death (necrosis). Cytometry. 27:1-20, 1997
Apoptotic HL-60 cells were detected by FACS analysis of FITC-dUTP-labelled DNA breaks using the Apo-Direct kit (BD-Pharmingen) according to the manufacturer's protocol.

[3] = WST-1 cytotoxicity assay, PC-3; assay type: cell-based; conditions: human, PC-3 cells (prostate carcinoma); WST-1, 48 h incubation; read-out: EC50 class, cytotoxic effect, CL-3 (PC-3)
In short: as §1

hCyp18 = hCyp18 (Homo sapiens, UniProt P62937); assay: protease-coupled PPIase assay, hCyp18; assay type: biochemical; conditions: 10 nM hCyp18, substrate Suc-Ala-Phe-Pro-Phe-pNA, chymotrypsin, pH 7.8, 6° C.; read-out: IC50 class, Target T-3 (hCyp18)
hCyp18, sequence (P62937 whole entry): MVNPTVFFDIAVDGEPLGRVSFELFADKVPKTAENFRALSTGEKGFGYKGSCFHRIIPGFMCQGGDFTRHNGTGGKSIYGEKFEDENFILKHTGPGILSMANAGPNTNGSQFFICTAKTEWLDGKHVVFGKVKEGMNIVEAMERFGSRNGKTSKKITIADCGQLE

[4] = WST-1 cytotoxicity assay, HeLa; assay type: cell-based; conditions: human, HeLa cells (cervix carcinoma); WST-1, 48 h incubation; read-out: EC50 class, cytotoxic effect, CL-2 (HeLa)
In short: as §1

hFKBP12 = hFKBP12 (Homo sapiens, UniProt P62942); assay: protease-coupled PPIase assay, hFKBP12; assay type: biochemical; conditions: 20 nM hFKBP12, substrate Suc-Ala-Phe-Pro-Phe-pNA, chymotrypsin, pH 7.8, 6° C.; read-out: IC50 class, Target T-2 (hFKBP12)
hFKBP12, sequence (P62942 whole entry): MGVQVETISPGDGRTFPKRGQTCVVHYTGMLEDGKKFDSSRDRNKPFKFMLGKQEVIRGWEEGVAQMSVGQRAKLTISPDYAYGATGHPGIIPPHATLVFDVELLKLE

Cc1c(Cl)cc(NC(=O)NC(C)(C)CC(C)(C)C)c(O)c1Cl [Compound 102]
cytotoxic effect on the tumor cell lines tested [1]: particular relevance | EC50 at 48 h [2]: < 10 µM | IC50 (cathepsin B): 50 to 100 µM | IC50 (LpCyp18): 10 to 50 µM | induction of apoptosis (FACS analysis of FITC-dUTP-labelled DNA breaks) (HL-60 cells): induce apoptosis | EC50 at 48 h [3]: < 10 µM | IC50 (hCyp18): 10 to 50 µM | EC50 at 48 h [4]: < 10 µM | IC50 (hFKBP12): > 100 µM

From patent US20110065760A1, “COMPOUNDS FOR THE INHIBITION OF ROTAMASES AND USE THEREOF” (Jerini AG, priority 2002, published 2011)
